Marks after values point to notes of the source that are not given here.
Key:
[1] = test system: fibrin fiber network of healthy platelet rich plasma (PRP); conditions: PRP exposed to compound, then thrombin; SEM
Procedure: SEM-Based Analyses. […] Blood was obtained from three healthy, female subjects after written, informed consent was obtained. […] Their plasma ferritin (range 2.6-3.3 g/L), serum ferritin (range 13-28 ng/ml) and iron saturation of ferritin (range 19-33%) were normal. As noted previously, forty ml of whole blood was obtained, anticoagulated (sodium citrate, 9 parts blood to 1 part 0.105M sodium citrate), and platelet rich plasma (PRP) was generated by centrifugation of blood at 1250×g for 2 min (Nielsen et al., Blood Coagul Fibrinolysis 25:695-702 (2014); Nielsen et al., Blood Coagul Fibrinolysis 25:845-50 (2014)). […]
The cover slips were placed in 0.075 M PBS on a shaker and washed for 20 minutes. […] Once the samples had been coated they were analyzed with a scanning electron microscope (Zeiss ULTRA plus FEG SEM, Carl Zeiss Microscopy GmbH, Jena, Germany).
After visualization of the fibrin networks with SEM, micrographs were obtained at 40,000 times machine magnification. […] One fiber was randomly selected out of every block of the grid, ensuring that fiber measurements were not duplicated, and that fibers were systematically assessed to prevent observer bias (Pretorius Ultrastruct Pathol 35(4):150-154 (2001); Pretorius et al., Blood Coagul Fibrinolysis 22(8):696-700 (2011)). […] From each sample, 50 fibers were measured.

normal individual plasma = assay: Coagulation kinetic analyses and COHF assay (TTG increase after CORM-2); assay type: biochemical, human; conditions: CORM-2 100 μM; based on individual, not group mean responses
Procedure: Plasma was rapidly thawed at 37° C. on the day of experimentation. The final volume for all subsequently described plasma sample mixtures was 359.4 μl. […] Plasma sample mixtures were placed in a disposable cup in a computer-controlled thrombelastograph® hemostasis system (Model 5000, Haemoscope Corp., Niles, Ill., USA), with addition of CaCl2 as the last step to initiate clotting. Data were collected at 37° C. for 15 min. The following elastic modulus-based parameters previously described (Benk et al., Eur J Cardio-Thorac Surg 44:551-558 (2013); Owens Clin Biochem 43:1183-1188 (2010); Balla et al., Antioxid Redox Signal 9:2119-2137 (2007); Nielsen et al., Blood Coagul Fibrinolysis 20:377-380 (2009); Nielsen et al., Blood Coagul Fibrinolysis 22:443-447 (2011); Nielsen et al., Blood Coagul Fibrinolysis 22:756-759 (2011); Nielsen et al., Blood Coagul Fibrinolysis 24:405-410 (2013)) were determined: time to maximum rate of thrombus generation (TMRTG): this is the time interval (min) observed prior to maximum speed of clot growth; maximum rate of thrombus generation (MRTG): this is the maximum velocity of clot growth observed (dynes/cm^2/sec); and total thrombus generation (TTG, dynes/cm^2), the final viscoelastic resistance observed after clot formation. […]

normal pooled plasma [2] = assay: Concentration-response of FeCl3 on reaction time (R), ROTEM delta thromboelastometry; assay type: biochemical, human; conditions: 2-10 μM FeCl3
Procedure: First, a concentration-response relationship of iron concentration and reaction time (R, defined as 2 mm clot strength; this is also known as clotting time in thromboelastometric analyses) was determined. The rationale for using R time was that it is the first indication of the onset of coagulation, is used in both thrombelastographic and thromboelastometric systems, and was anticipated to quickly and easily detect iron-mediated enhancement of coagulation based on previous work. This concentration-response relationship was generated with a ROTEM® delta hemostasis system (Tem Innovations GmbH, Munich, Germany) generously provided by the manufacturer. All disposable cups/pins and reagents were also provided by Tem Innovations. Plasma was rapidly thawed at 37° C. on the day of experimentation. […] After 3 min or more of incubation at room temperature, 320 μl of these iron-exposed plasmas were subsequently placed in a disposable cup, with subsequent addition of 20 μl of 200 mM CaCl2. The complete sample was mixed by pipette once, and the reaction commenced at 37° C. The R values were subsequently recorded.

normal pooled plasma [3] = assay: Effect of FeCl3 and deferoxamine chelation on reaction time (R), thrombelastograph; assay type: biochemical, human; conditions: FeCl3 10 μM; for reaction time: median (1st, 3rd quartile)
Procedure: Thrombelastograph-Based Analyses. All thrombelastograph-based experiments were performed at the University of Arizona. Frozen, citrate anticoagulated normal pooled plasma was obtained from a commercial vendor (George King Bio-Medical, Overland Park, Kans., USA) for use in subsequently described experimentation. […] Deferoxamine was obtained from a commercial vendor (Cayman Chemical Company, Ann Arbor, Mich., USA). […] Then, 336 μl of either plasma mixture was placed in a disposable cup in a computer-controlled thrombelastograph® hemostasis system (Model 5000, Haemoscope Corp., Niles, Ill., USA). […] Thus, there were four conditions: no deferoxamine, no FeCl3, (Control), deferoxamine, no FeCl3 (deferoxamine); no deferoxamine, FeCl3 (FeCl3); and finally, FeCl3 followed by deferoxamine (FeCl3+Deferoxamine). There were six replicates per condition. Thereafter, 20 μl of 200 mM CaCl2 was added as the last step to initiate clotting. Data were collected at 37° C. until R was recorded. […] There were six replicates per condition. An aliquot of 340 μl of each of the four conditions was placed into thrombelastographic cups and 20 μl of 200 mM CaCl2 was added to initiate clotting. Data were collected at 37° C. until R was recorded. As R values varied between experiments, and a fixed number of channels were available (n=4), plasma was incubated at room temperature between 45-60 min prior to initiation of coagulation. The third series of experiments was designed to decrease incubation time by increasing temperature and deferoxamine concentration without compromising the ability to detect iron-mediated changes in R values. […] The mixtures were mixed with the disposable pin, and allowed to incubate for 15 min at 37° C. Clotting was initiated by addition of 20 μl of 200 mM CaCl2 and data collected at 37° C. until R was recorded. A total of six replicates of the four experimental conditions were analyzed.

[C-]#[O+].[C-]#[O+].[C-]#[O+].[C-]#[O+].[C-]#[O+].[C-]#[O+].[Cl][Ru][Cl].[Cl][Ru][Cl] [CORM-2, tricarbonyldichlororuthenium (II) dimer]
decrease in average fibrin fiber width vs normal subjects (105±3 nm) [1]: 43%
normal individual increase in TTG secondary to CORM-2 exposure (normal individual plasma): 89%

[Cl][Fe]([Cl])[Cl] [FeCl3, ferric chloride]
R values vs plasma without FeCl3 addition (normal pooled plasma [2]): significantly smaller
decrease in average fibrin fiber width vs normal subjects (105±3 nm) [1]: 58%
FeCl3-mediated decrease in R values (normal pooled plasma [3]; 45-60 minute incubation): 72%
reduction in R values compared to control plasma values (normal pooled plasma [3]; 3 min incubation series): 54%
reaction time (normal pooled plasma [3]; Fifteen min incubation at 37° C., deferoxamine 2.78 mM): 4.6 (4.4, 6.0)*† min
reaction time (normal pooled plasma [3]; Forty-five to sixty min incubation at room temperature, deferoxamine 1 mM): 5.0 (4.9, 5.1)*† min
reaction time (normal pooled plasma [3]; Three min incubation at room temperature, deferoxamine 1 mM): 5.9 (5.8, 6.4)*† min
